Row | melting point [°C] | Structure (SMILES)
1 | 189 to 191 | COc1cccc(Nc2ccc(Nc3ncnc4cc(-c5ccccc5)sc34)cc2)c1 [Example 66, N-(3-Methoxy-phenyl)-N′-(6-phenyl-thieno[3,2-d]pyrimidin-4-yl)-benzene-1,4-diamine]
2 | 218 to 220 | Cc1cc2cc(Nc3ncnc4cc(-c5ccccc5)sc34)ccc2[nH]1 [Example 68, (2-Methyl-1H-indol-5-yl)-(6-phenyl-thieno[3,2-d]pyrimidin-4-yl)-amine]
3 | 178 to 180 | CCN(CC)CCCn1ccc2cc(Nc3ncnc4cc(-c5ccccc5)sc34)ccc21 [Example 70, [1-(3-Diethylamino-propyl)-1H-indol-5-yl]-(6-phenyl-thieno[3,2-d]pyrimidin-4-yl) -amine]
4 | 205 to 210 | Cc1nc(Nc2ccc3[nH]ccc3c2)c2sc(-c3ccccc3)cc2n1 [Example 71, (1H-Indol-5-yl)-(2-methyl-6-phenyl-thieno[3,2-d]pyrimidin-4-yl)-amine]
5 | 181 to 185 | COc1ccc(Nc2ccc(Nc3nc(C)nc4cc(-c5ccccc5)sc34)cc2)cc1 [Example 72, N-(4-Methoxy-phenyl)-N′-(2-methyl-6-phenyl-thieno[3,2-d]pyrimidin-4-yl)-benzene-1,4-diamine]
6 | 201 to 203 | c1ccc(COCCNc2ccc(Nc3ncnc4cc(-c5ccccc5)sc34)cc2)cc1 [Example 73, N-(2-Benzyloxy-ethyl)-N′-(6-phenyl-thieno[3,2-d]pyrimidin-4-yl)-benzene-1,4-diamine]
7 | 174 to 175 | O=Cc1c[nH]c2ccc(Nc3ncnc4cc(-c5ccccc5)sc34)cc12 [Example 74, 5-(6-Phenyl-thieno[3,2-d]pyrimidin-4-ylamino)-1H-indole-3-carbaldehyde]
8 | 259 to 261 | c1ccc(-c2cc3ncnc(Nc4ccc(NCc5c[nH]c6ccccc56)cc4)c3s2)cc1 [Example 76, N-(1H-Indol-3-ylmethyl)-N′-(6-phenyl-thieno[3,2-d]pyrimidin-4-yl)-benzene-1,4-diamine]
9 | 231 to 240 | COc1ccc(Nc2ccc(Nc3ncnc4cc(-c5cccs5)sc34)cc2)cc1 [Example 81, N-(4-Methoxy-phenyl)-N′-(6-thiophen-2-yl-thieno[3,2-d]pyrimidin-4-yl)-benzene-1,4-diamine]
10 | 221 to 223 | Cc1c[nH]c2ccc(Nc3ncnc4cc(-c5ccccc5)sc34)cc12 [Example 82, (3-Methyl-1H-indol-5-yl)-(6-phenyl-thieno[3,2-d]pyrimidin-4-yl)-amine]
11 | 243 to 249 | COc1ccc(-c2cc3ncnc(Nc4ccc5[nH]ccc5c4)c3s2)cn1 [Example 86, (1H-Indol-5-yl)-[6-(6-methoxy-pyridin-3-yl)-thieno[3,2-d]pyrimidin-4-yl]-amine]
12 | 175 to 184 | COc1ccc(Nc2ccc(Nc3ccnc4cc(-c5ccc(OC)nc5)sc34)cc2)cc1 [Example 87, N-(4-Methoxy-phenyl)-N′-[2-(6-methoxy-pyridin-3-yl)-thieno[3,2-b]pyridin-7-yl]-benzene-1,4-diamine]

Reference: patent US6492383B1, “Thienopyrimidine and thienopyridine derivatives useful as anticancer agents” (Pfizer Inc., priority 1998, dated 2002)
